Results as given in US4537886A, “β-lactam antibacterial agents and compositions containing them” (Beecham Group p.l.c., priority 1982, dated 1985).
Converted amounts (≈) assume the structure as drawn. Counter-ions that a name gives are not always drawn.

Test system: E. coli NCTC 10418
Test: MIC against E. coli NCTC 10418
Assay type: cell-based
Conditions: Escherichia coli, NCTC 10418 / NCTC 1048; E. coli NCTC 1048 as printed in Example 7; read-out: MIC against E. coli NCTC 1048

SMILES | MIC [mg/L]
CCn1c(C)c(C(=O)N[C@@H](C(=O)N[C@@H]2C(=O)N3[C@@H]2SC(C)(C)[C@@H]3C(=O)O)c2ccccc2)c(=O)n1-c1ccc(N)cc1 [Example 7, 6β-[D2,-(2-Ethyl-3-methyl-1-(4-aminophenyl)-3-pyrazolin-5-one-4-carbonylamino)-2-phenyl]acetamido penicillanic acid (sodium salt)] | 50

Same assay, conditions: Escherichia coli, NCTC10418; E. coli NCTC 10418; unit as printed in Example 1; read-out: MIC against E. coli NCTC 10418

SMILES | MIC [mg/L]
Cc1c(C(=O)N[C@@H](C(=O)N[C@@H]2C(=O)N3[C@@H]2SC(C)(C)[C@@H]3C(=O)O)c2ccccc2)c(=O)n(-c2ccccc2)n1C [Example 1, 6β-[D,2-(2,3-dimethyl-1-phenyl-3-pyrazolin-5-one-4-carbonylamino)-2-phenyl]acetamido penicillanic acid, sodium salt] | 5

Same assay, conditions: Escherichia coli, NCTC10418; read-out: MIC against E. coli NCTC 10418

SMILES | MIC [mg/L]
Cc1c(C(=O)N[C@@H](C(=O)N[C@@H]2C(=O)N3[C@@H]2SC(C)(C)[C@@H]3C(=O)O)c2ccc(O)cc2)c(=O)n(-c2ccccc2)n1C [Example 2, 6β-[D,2-(2,3-dimethyl-1-phenyl-3-pyrazolin-5-one-4-carbonylamino)-2-(4-hydroxyphenyl)]acetamido penicillanic acid, sodium salt] | 12.5
CC1(C)S[C@@H]2[C@H](NC(=O)[C@H](NC(=O)c3cn(-c4ccccc4)[nH]c3=O)c3ccccc3)C(=O)N2[C@H]1C(=O)O [Example 3, 6β-[D,2-(2-phenyl-3-pyrazolin-5-one-4-carbonylamino)-2-phenyl]acetamido penicillanic acid, sodium salt] | 2.5
CC1(C)S[C@@H]2[C@H](NC(=O)[C@H](NC(=O)c3cnn(-c4ccccc4)c3O)c3ccccc3)C(=O)N2[C@H]1C(=O)O [Example 4, 6β-[D,2-(2H,3-Hydroxy-2-phenylpyrazole-4-carbonylamino)-2-phenyl]acetamido penicillanic acid (sodium salt)] | 2
COc1c(C(=O)N[C@@H](C(=O)N[C@@H]2C(=O)N3[C@@H]2SC(C)(C)[C@@H]3C(=O)O)c2ccccc2)cnn1-c1ccccc1 [Example 5, 6β-[D,2-(2H,3-Methoxy-2-phenyl-pyrazole-4-carbonylamino)-2-phenyl]acetamido penicillanic acid, sodium salt] | 12.5
CCn1c(C)c(C(=O)N[C@@H](C(=O)N[C@@H]2C(=O)N3[C@@H]2SC(C)(C)[C@@H]3C(=O)O)c2ccccc2)c(=O)n1-c1ccc([N+](=O)[O-])cc1 [Example 6, 6β-[D,2-(2-Ethyl-3-methyl-1-(4-nitrophenyl)-3-pyrazolin-5-one-4-carbonylamino)-2-phenyl]acetamido penicillanic acid] | 25 (≈ 40.2 µM)
Cn1cc(C(=O)N[C@@H](C(=O)N[C@@H]2C(=O)N3[C@@H]2SC(C)(C)[C@@H]3C(=O)O)c2ccccc2)c(=O)n1-c1ccccc1 [Example 8, 6β-[D,2-(2-Methyl-1-phenyl-3-pyrazolin-5-one-4-carbonylamino)-2-phenyl]acetamido penicillanic acid (sodium salt)] | 10
Cn1cc(C(=O)N[C@@H](C(=O)N[C@@H]2C(=O)N3[C@@H]2SC(C)(C)[C@@H]3C(=O)O)c2ccccc2)c(=O)n1Cc1ccccc1 [Example 9, 6β-[D,2-(1-Benzyl-2-methyl-3-pyrazolin-5-one-4-carbonylamino)-2-phenyl]acetamido penicillanic acid (sodium salt)] | 5
Cc1c(C(=O)N[C@@H](C(=O)N[C@@H]2C(=O)N3[C@@H]2SC(C)(C)[C@@H]3C(=O)O)c2ccccc2)c(=O)n(-c2ccc(Br)cc2)n1C [Example 10, 6β-[D,2-(2,3-Dimethyl-1-(4-bromophenyl)-3-pyrazolin-5-one-4-carbonylamino)-2-phenyl]acetamido penicillanic acid (sodium salt)] | 5
CC1(C)S[C@@H]2[C@H](NC(=O)[C@H](NC(=O)c3cn(-c4ccc([N+](=O)[O-])cc4)[nH]c3=O)c3ccccc3)C(=O)N2[C@H]1C(=O)O [Example 11, 6β-[D,2-(2-(4-Nitrophenyl)-3-pyrazolin-5-one-4-carbonylamino)-2-phenyl] acetamido penicillanic acid (sodium salt)] | 2.5
CC1(C)S[C@@H]2[C@H](NC(=O)[C@H](NC(=O)c3cn(-c4ccc(N)cc4)[nH]c3=O)c3ccccc3)C(=O)N2[C@H]1C(=O)O [Example 12, 6β-[D,2-(2-(4-Aminophenyl)-3-pyrazolin-5-one-4-carbonylamino)-2-phenyl] acetamido penicillanic acid (sodium salt)] | 5
CC1(C)S[C@@H]2[C@H](NC(=O)[C@H](NC(=O)c3cn(-c4ccc([N+](=O)[O-])cc4)[nH]c3=O)c3ccc(O)cc3)C(=O)N2[C@H]1C(=O)O [Example 13, 6β-[D,2-(2-(4-Nitrophenyl)-3-pyrazolin-5-one-4-carbonylamino)-2-(4-hydroxyphenyl)] acetamido penicillanic acid (sodium salt)] | 5
CC1(C)S[C@@H]2[C@H](NC(=O)[C@H](NC(=O)c3cn(-c4ccc(N)cc4)[nH]c3=O)c3ccc(O)cc3)C(=O)N2[C@H]1C(=O)O [Example 14, 6β-[D,2-(2-(4-Aminophenyl)-3-pyrazolin-5-one-4-carbonylamino)-2-(4-hydroxyphenyl)] acetamido penicillanic acid (sodium salt)] | 2.5
CC1(C)S[C@@H]2[C@H](NC(=O)[C@H](NC(=O)c3cn(-c4ccc(O)cc4)[nH]c3=O)c3ccccc3)C(=O)N2[C@H]1C(=O)O [Example 15, 6β-[D,2-(2-(4-Hydroxyphenyl)-3-pyrazolin-5-one-4-carbonylamino)-2-phenyl] acetamido penicillanic acid (sodium salt)] | 2
Cc1c(C(=O)N[C@@H](C(=O)N[C@@H]2C(=O)N3[C@@H]2SC(C)(C)[C@@H]3C(=O)O)c2ccccc2)c(=O)[nH]n1-c1ccccc1 [Example 16, 6β-[D,2-(3-Methyl-2-phenyl-3-pyrazolin-5-one-4-carbonyl-amino)-2-phenyl]acetamido penicillanic acid, sodium salt] | 25
CC1(C)S[C@@H]2[C@H](NC(=O)[C@H](NC(=O)c3cn(-c4ccc(Br)cc4)[nH]c3=O)c3ccccc3)C(=O)N2[C@H]1C(=O)O [Example 17, 6β-[D,2-(2-p-Bromophenyl-3-pyrazolin-5-one-4-carbonylamino)-2-phenyl]acetamido penicillanic acid, sodium salt] | 1
CC(=O)OCC1=C(C(=O)O)N2C(=O)[C@@H](NC(=O)[C@H](NC(=O)c3cn(-c4ccc([N+](=O)[O-])cc4)[nH]c3=O)c3ccccc3)[C@H]2SC1 [Example 18, 7β-[D,2-(2-p-Nitrophenyl-3-pyrazolin-5-one-4-carbonyl-amino)-2-phenyl]acetamido-3-acetoxymethylceph-3-em-4-carboxylic acid, sodium salt] | 1
CC(=O)OCC1=C(C(=O)O)N2C(=O)[C@@H](NC(=O)[C@H](NC(=O)c3cn(-c4ccc(N)cc4)[nH]c3=O)c3ccccc3)[C@H]2SC1 [Example 19, 7β-[D,2-(2-p-Aminophenyl-3-pyrazolin-5-one-4-carbonylamino)-2-phenyl]acetamido-3-acetoxymethylceph-3-em-4-carboxylic acid, sodium salt] | 5
COc1ccc(-n2cc(C(=O)N[C@@H](C(=O)N[C@@H]3C(=O)N4[C@@H]3SC(C)(C)[C@@H]4C(=O)O)c3ccccc3)c(=O)[nH]2)cc1 [Example 20, 6β-[D,2-(2-[4-Methoxyphenyl]-pyrazol-3-in-5-one-4-carbonylamino)-2-phenyl]acetamido penicillanic acid, sodium salt] | 0.25
COc1nn(-c2ccc([N+](=O)[O-])cc2)cc1C(=O)N[C@@H](C(=O)N[C@@H]1C(=O)N2[C@@H]1SC(C)(C)[C@@H]2C(=O)O)c1ccccc1 [Example 21, 6-β-[D,2-([1H]-3-Methoxy-1-[4-nitrophenyl]pyrazole-4-carbonylamino)-2-phenyl]acetamido penicillanic acid, sodium salt] | 8
COc1nn(-c2ccc(N)cc2)cc1C(=O)N[C@@H](C(=O)N[C@@H]1C(=O)N2[C@@H]1SC(C)(C)[C@@H]2C(=O)O)c1ccccc1 [Example 22, 6β-[D,2-([1H]-1-(4-Aminophenyl)-3-methoxypyrazole-4-carbonylamino)-2-phenyl]acetamido penicillanic acid, sodium salt] | 16
Cc1ccc(-n2cc(C(=O)N[C@@H](C(=O)N[C@@H]3C(=O)N4[C@@H]3SC(C)(C)[C@@H]4C(=O)O)c3ccccc3)c(=O)[nH]2)cc1 [Example 23, 6β-[D,2-(2-[4-Methylphenyl]pyrazol-3-in-5-one-4-carbonylamino)-2-phenyl] acetamido penicillanic acid, sodium salt] | 10
